Measured values: PubChem BioAssay (NCI)
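Cells were grown in 96-well plates and exposed to each compound for 48 hours at five concentrations; endpoints were interpolated linearly between bracketing concentrations, or set to the highest concentration if not reached. The concentration for full growth arrest is given as TGI.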

Key:
Assay in all cases: NCI-60 cell line screen, 48 h
HS 578T breast = tested on: HS 578T breast
OVCAR-4 ovarian = tested on: OVCAR-4 ovarian
UACC-62 melanoma = tested on: UACC-62 melanoma
HCT-15 colon = tested on: HCT-15 colon
HT29 colon = tested on: HT29 colon
SNB-75 CNS = tested on: SNB-75 CNS
CCRF-CEM leukemia = tested on: CCRF-CEM leukemia
SK-MEL-2 melanoma = tested on: SK-MEL-2 melanoma
EKVX NSCLC = tested on: EKVX NSCLC
NCI-H23 lung = tested on: NCI-H23 lung
SR leukemia = tested on: SR leukemia
SW-620 colon = tested on: SW-620 colon
SK-OV-3 ovarian = tested on: SK-OV-3 ovarian
OVCAR-5 ovarian = tested on: OVCAR-5 ovarian
MALME-3M melanoma = tested on: MALME-3M melanoma
SNB-19 CNS = tested on: SNB-19 CNS
NCI/ADR-RES ovarian = tested on: NCI/ADR-RES ovarian
NCI-H522 lung = tested on: NCI-H522 lung
U251 CNS = tested on: U251 CNS
ACHN renal = tested on: ACHN renal
SK-MEL-5 melanoma = tested on: SK-MEL-5 melanoma
T-47D breast = tested on: T-47D breast
M14 melanoma = tested on: M14 melanoma
HOP-92 NSCLC = tested on: HOP-92 NSCLC
SF-268 CNS = tested on: SF-268 CNS
OVCAR-3 ovarian = tested on: OVCAR-3 ovarian
IGROV1 ovarian = tested on: IGROV1 ovarian
LOX IMVI melanoma = tested on: LOX IMVI melanoma
MDA-MB-435 = tested on: MDA-MB-435
BT-549 breast = tested on: BT-549 breast
OVCAR-8 ovarian = tested on: OVCAR-8 ovarian
A549 NSCLC = tested on: A549 NSCLC
MCF7 breast = tested on: MCF7 breast
RXF 393 renal = tested on: RXF 393 renal
UO-31 renal = tested on: UO-31 renal
K-562 leukemia = tested on: K-562 leukemia
MDA-MB-231 breast = tested on: MDA-MB-231 breast
TK-10 renal = tested on: TK-10 renal
MOLT-4 leukemia = tested on: MOLT-4 leukemia
PC-3 prostate = tested on: PC-3 prostate
SN12C renal = tested on: SN12C renal
DU-145 prostate = tested on: DU-145 prostate
SF-539 CNS = tested on: SF-539 CNS
NCI-H460 lung = tested on: NCI-H460 lung
HL-60(TB) leukemia = tested on: HL-60(TB) leukemia
SF-295 CNS = tested on: SF-295 CNS
786-0 renal = tested on: 786-0 renal
UACC-257 melanoma = tested on: UACC-257 melanoma
KM12 colon = tested on: KM12 colon

Measured: TGI

CC#CCCCC1(C)CCCNC1=S (centres undefined)
> 10 µM: all assays above
